Measured values reported in ChEMBL document CHEMBL1649383, “Mode of action of epoxyphomalins A and B and characterization of related metabolites from the marine-derived fungus Paraconiothyrium sp” (J Nat Prod, 2010).

Key:
[1] = organism: Homo sapiens; assay: Inhibition of trypsin like activity of human erythrocyte-derived 20S proteasome after 60 mins by fluorescence assay
[2] = organism: Homo sapiens; assay: Inhibition of chymotrypsin like activity of human erythrocyte-derived 20S proteasome after 60 mins by fluorescence assay
[3] = organism: Homo sapiens; assay: Inhibition of caspase like activity of human erythrocyte-derived 20S proteasome after 60 mins by fluorescence assay

Measured: Activity

CC1=CC[C@H]2[C@](C)(CO)CCC[C@]2(C)[C@H]1C[C@@]12O[C@@H]1C(=O)C(CO)=C[C@H]2O
active: [1] Dose-dependent effect | [2] Dose-dependent effect | [3] Dose-dependent effect

CC1=C[C@@H](O)[C@]2(C[C@H]3C(C)=CC[C@H]4[C@](C)(CO)CCC[C@]34C)O[C@@H]2C1=O
active: [1] Dose-dependent effect | [2] Dose-dependent effect | [3] Dose-dependent effect
